In patent US20220169639A1 (priority 2018, published 2022):

test system: HBeAg (surrogate marker for cccDNA) in HepDES19 cells; assay: Engineered HepDES19 primary screen assay (HBeAg ELISA); type: cell-based, HBV; conditions: Hepatitis B virus, 120 h, HBeAg in culture supernatant, 5 days incubation, read-out: IC50 (HepDES19 primary screen assay, inhibition of extracellular HBeAg level)
Description: The assay was employed to screen for cccDNA inhibitors. HepDES19 is a cccDNA-producing cell line. In this cell line, HBeAg in the cell culture supernatant as surrogate marker, as HBeAg production depends on cccDNA level and activity. HepDES19 is an engineered cell line which contains a 1.1 unit length HBV genome, and pgRNA transcription from the transgene is controlled by Tetracycline (Tet). In the absence of Tet, pgRNA transcription will be induced, but HBV e antigen (HBeAg) could not be produced from this pgRNA due to very short leader sequence before the HBeAg start codon and the start codon is disrupted. Only after cccDNA is formed, the missing leader sequence and start codon mutation would be restored from the 3′-terminal redundancy of pgRNA, and then HBeAg could be synthesized. Therefore, HBeAg could be used as a surrogate marker for cccDNA (Zhou, T. et al., Antiviral Res. (2006), 72(2), 116-124; Guo, H. et al., J. Virol. (2007), 81(22), 12472-12484).
HepDES19 cells were seeded at 2×10^6 cells per T150 flask and cultured with the culture medium (Dulbecco's Modified Eagle Medium: Nutrient Mixture F-12 [DMEM-F12, Gibco Cat. 11320-82], 10% Fetal Bovine Serum [FBS, Clontech Cat. 631101], 0.1 mM Non-Essential Amino Acids Solution [NEAA, Gibco Cat. 11140-050], 50 μg/mL Penicillin-Streptomycin [PS, Invitrogen Cat. 15140-163], 500 μg/mL Geneticin [G418, Invitrogen Cat. 10131-027]) containing 3 μg/mL Tet (Sigma, Cat. 87128) for 5 days. Cells were then seeded at 4×10^6 cells per T150 in the same culture medium as described above in the absence of Tet for 8 days. Cells were then harvested and frozen at density of 2×10^6 cells per mL. For compound testing, the frozen cells were thawed and seeded into 96-well plates at a density of 6×10^4 cells per well. At 24 hours after seeding, half log serial dilutions of compounds made with Dimethyl sulfoxide (DMSO, Sigma, Cat. D2650) were further diluted with the same culture medium as described above before they were added to the cells to reach desired final compound concentrations and 1% DMSO concentration. Plates were then incubated at 37° C. for another 5 days before measurement of HBeAg level and cell viability. Intracellular HBeAg level were measured with enzyme-linked immunosorbent assay (ELISA) kit (Shanghai Kehua Diagnostic Medical Products Co., Ltd). Cell viability was assessed using Cell Counting Kit-8 (DonJindo, Cat. CK04-20). IC50 values were derived from the dose-response curve using 4 parameter logistic curve fit method.
The compounds of the present invention were tested for their capacity to inhibit extracellular HBeAg level as described herein.

With `CC(C)[C@H](NCCOc1cc(C(F)(F)F)ccc1-c1cc(=O)c2cccc(Cl)c2o1)C(=O)O` [Example 037, (2S)-2-[2-[2-(8-chloro-4-oxo-chromen-2-yl)-5-(trifluoromethyl)phenoxy]ethylamino]-3-methyl-butanoic acid] as the compound, how does the IC50 read?
The IC50 was 4120 nM.

With `O=C(O)C1CCN(CCOc2ccccc2-c2cc(=O)c3cc(F)cc(Cl)c3o2)C1` (centres unmarked) [Example 043, 1-[2-[2-(8-chloro-6-fluoro-4-oxo-chromen-2-yl)phenoxy]ethyl]pyrrolidine-3-carboxylic acid] as the compound, how does the IC50 read?
Its IC50 is 1420 nM.

For `O=C(O)CCNCCOc1cc(C(F)(F)F)ccc1-c1cc(=O)c2cccc(Cl)c2o1` [Example 124], which IC50 is on record?
The IC50 was 5880 nM.

How did the IC50 turn out when `O=c1cc(-c2ccc(C(F)(F)F)cc2OCCCN([C@H]2C[C@H](C(=O)O)C2)S(=O)(=O)c2ccccc2)oc2c(Cl)cccc12` [Example 142] was run?
The IC50 was 740 nM.

With `O=C(O)CN(CCCOc1cc(C(F)(F)F)ccc1-c1cc(=O)c2cccc(Cl)c2o1)CC(=O)O` [Example 140] as the compound, how does the IC50 read?
The IC50 was 190 nM.

`O=c1cc(-c2ccc(Br)cc2OCCN[C@H]2CC[C@H](C(=O)O)CC2)oc2c(Cl)cccc12` [Example 056, trans-4-[2-[5-bromo-2-(8-chloro-4-oxo-chromen-2-yl)phenoxy]ethylamino]cyclohexanecarboxylic acid] was tested. Which IC50 did it give?
The IC50 was 1000 nM.

Which IC50 does the source give for `CCOC(=O)C(=O)N(CCCOc1cc(C(F)(F)F)ccc1-c1cc(=O)c2cccc(Cl)c2o1)S(=O)(=O)CC` [Example 138, ethyl 2-[3-[2-(8-chloro-4-oxo-chromen-2-yl)-5-(trifluoromethyl)phenoxy]propyl-ethylsulfonyl-amino]-2-oxo-acetate] here?
The IC50 was 4560 nM.

With `NC(=O)C1CSCCN1CCOc1cc(Br)ccc1-c1cc(=O)c2cccc(Cl)c2o1` (centres unmarked) [Example 085, 4-[2-[5-bromo-2-(8-chloro-4-oxo-chromen-2-yl)phenoxy]ethyl]thiomorpholine-3-carboxamide] as the compound, how does the IC50 read?
The IC50 was 1080 nM.

`O=C(O)C(CC1CCCCC1)NCCCOc1cc(C(F)(F)F)ccc1-c1cc(=O)c2cccc(Cl)c2o1` (centres unmarked) [Example 063, 2-[3-[2-(8-chloro-4-oxo-chromen-2-yl)-5-(trifluoromethyl)phenoxy]propylamino]-3-cyclohexyl-propanoic acid] was tested. Which IC50 did it give?
Its IC50 is 4320 nM.

Which IC50 does the source give for `O=C(O)[C@H]1CCN(CC(O)COc2cc(C(F)(F)F)ccc2-c2cc(=O)c3cccc(Cl)c3o2)C1` (stereo partly drawn) [Example 163, (3S)-1-[3-[2-(8-chloro-4-oxo-chromen-2-yl)-5-(trifluoromethyl)phenoxy]-2-hydroxy-propyl]pyrrolidine-3-carboxylic acid] here?
Its IC50 is 2760 nM.

For `CS(=O)(=O)NC(=O)[C@@H]1CCN(CCCOc2cc(C(F)(F)F)ccc2-c2cc(=O)c3cccc(Cl)c3o2)C1` [Example 065, (3R)-1-[3-[2-(8-chloro-4-oxo-chromen-2-yl)-5-(trifluoromethyl)phenoxy]propyl]-N-methylsulfonyl-pyrrolidine-3-carboxamide], which IC50 is on record?
The IC50 was 7210 nM.

`O=C(O)[C@@H]1CCCN1CCOc1ccccc1-c1cc(=O)c2cccc(Cl)c2o1` [Example 032, (2S)-1-[2-[2-(8-chloro-4-oxo-chromen-2-yl)phenoxy]ethyl]pyrrolidine-2-carboxylic acid] was tested. Which IC50 did it give?
Its IC50 is 650 nM.

Which IC50 does the source give for `CC(=O)N(CCCOc1cc(C(F)(F)F)ccc1-c1cc(=O)c2cccc(Cl)c2o1)CC(=O)O` [Example 144] here?
Its IC50 is 11400 nM.

`O=C(O)[C@H]1CCCN1CCOc1ccccc1-c1cc(=O)c2cccc(Cl)c2o1` [Example 030, (2R)-1-[2-[2-(8-chloro-4-oxo-chromen-2-yl)phenoxy]ethyl]pyrrolidine-2-carboxylic acid] was tested. Which IC50 did it give?
The IC50 was 1330 nM.

How did the IC50 turn out when `CCOC(=O)C(=O)NCCCOc1cc(C)ccc1-c1cc(=O)c2cccc(Cl)c2o1` [Example 095, ethyl 2-[3-[2-(8-chloro-4-oxo-chromen-2-yl)-5-methyl-phenoxy]propylamino]-2-oxo-acetate] was run?
The IC50 was 9300 nM.

How did the IC50 turn out when `Cc1ccc(-c2cc(=O)c3cccc(Cl)c3o2)c(OCCNC(=O)N[C@@H](C)C(=O)O)c1` [Example 151, (2S)-2-[2-[2-(8-chloro-4-oxo-chromen-2-yl)-5-methyl-phenoxy]ethylcarbamoylamino]propanoic acid] was run?
Its IC50 is 630 nM.

For `O=c1cc(-c2ccc(C(F)(F)F)cc2OCCNS(=O)(=O)C2CC2)oc2c(Cl)cccc12` [Example 096], which IC50 is on record?
The IC50 was 130 nM.

`CS(=O)(=O)NC(=O)C1CCCN1CCOc1cc(Br)ccc1-c1cc(=O)c2cccc(Cl)c2o1` (centres unmarked) [Example 074, 1-[2-[5-bromo-2-(8-chloro-4-oxo-chromen-2-yl)phenoxy]ethyl]-N-methylsulfonyl-pyrrolidine-2-carboxamide] was tested. Which IC50 did it give?
The IC50 was 1030 nM.

For `CC(C)(C)CC(NCCCOc1cc(C(F)(F)F)ccc1-c1cc(=O)c2cccc(Cl)c2o1)C(=O)O` (centres unmarked) [Example 011, 2-[3-[2-(8-chloro-4-oxo-chromen-2-yl)-5-(trifluoromethyl)phenoxy]propylamino]-4,4-dimethyl-pentanoic acid], which IC50 is on record?
The IC50 was 3610 nM.

`NC(=O)C1CCN(CCOc2cc(Br)ccc2-c2cc(=O)c3cccc(Cl)c3o2)C1` (centres unmarked) [Example 083, 1-[2-[5-bromo-2-(8-chloro-4-oxo-chromen-2-yl)phenoxy]ethyl]pyrrolidine-3-carboxamide] was tested. Which IC50 did it give?
Its IC50 is 560 nM.

With `CCNS(=O)(=O)N(C)CCOc1cc(C)ccc1-c1cc(=O)c2cccc(Cl)c2o1` [Example 136, 8-chloro-2-[2-[2-[ethylsulfamoyl(methyl)amino]ethoxy]-4-methyl-phenyl]-4-oxo-chromene] as the compound, how does the IC50 read?
Its IC50 is 580 nM.

`Cc1ccc(-c2cc(=O)c3cccc(Cl)c3o2)c(OCCN2CCNC2=O)c1` [Example 091, 1-[2-[2-(8-chloro-4-oxo-chromen-2-yl)-5-methyl-phenoxy]ethyl]imidazolidin-2-one] was tested. Which IC50 did it give?
Its IC50 is 2830 nM.

With `Cc1cc(-c2cc(=O)c3cccc(Cl)c3o2)c(OCCOCCN2CCC[C@@H]2C(=O)O)cc1Br` [Example 048, (2R)-1-[2-[2-[5-bromo-2-(8-chloro-4-oxo-chromen-2-yl)-4-methyl-phenoxy]ethoxy]ethyl]pyrrolidine-2-carboxylic acid] as the compound, how does the IC50 read?
The IC50 was 6680 nM.

`O=C(O)C12CC(NCCOc3cc(Br)ccc3-c3cc(=O)c4cccc(Cl)c4o3)(C1)C2` [Example 026, 3-[2-[5-bromo-2-(8-chloro-4-oxo-chromen-2-yl)phenoxy]ethylamino]bicyclo[1.1.1]pentane-1-carboxylic acid] was tested. Which IC50 did it give?
Its IC50 is 460 nM.

How did the IC50 turn out when `Cc1cc(-c2cc(=O)c3cccc(Cl)c3o2)c(OCCN2CCC[C@H]2C(=O)O)cc1Cl` [Example 045] was run?
The IC50 was 6500 nM.

For `O=C(O)[C@H]1CCN(CCOc2cc(C(F)(F)F)ccc2-c2cc(=O)c3cccc(Cl)c3o2)C1` [Example 034, (3S)-1-[2-[2-(8-chloro-4-oxo-chromen-2-yl)-5-(trifluoromethyl)phenoxy]ethyl]pyrrolidine-3-carboxylic acid], which IC50 is on record?
Its IC50 is 1120 nM.

`COc1ccc2oc(-c3ccccc3OC)cc(=O)c2c1` [Example F-2, 6-methoxy-2-(2-methoxyphenyl)chromen-4-one, reference compound] was tested. Which IC50 did it give?
The IC50 was greater than 50000 nM.

How did the IC50 turn out when `Cc1ccc(-c2cc(=O)c3cccc(Cl)c3o2)c(OCCNS(N)(=O)=O)c1` [Example 161, 8-chloro-2-[4-methyl-2-[2-(sulfamoylamino)ethoxy]phenyl]-4-oxo-chromene] was run?
Its IC50 is 4740 nM.

With `O=c1cc(-c2ccc(C(F)(F)F)cc2OCC(O)CNS(=O)(=O)C2CC2)oc2c(Cl)cccc12` (centres unmarked) [Example 086, N-[3-[2-(8-chloro-4-oxo-chromen-2-yl)-5-(trifluoromethyl)phenoxy]-2-hydroxy-propyl]cyclopropanesulfonamide] as the compound, how does the IC50 read?
Its IC50 is 3220 nM.
